Data taken from patent US20100056596A1, “RESISTANCE-REPELLENT RETROVIRAL PROTEASE INHIBITORS” (Sequoia Pharmaceuticals, priority 2004, published 2010).

Key:
HIV-1 isolates, WT = experiment: In vitro drug sensitivity of HIV-1 laboratory isolates, WT; type: cell-based; conditions: Human immunodeficiency virus 1
Experimental: (§1) In Vitro Drug Sensitivity of HIV-1 Laboratory Isolates to PIs
(§2) The sensitivities of HIV-1 isolates against compounds of the invention were determined as previously described with minor modifications (Shiraska et al., Proc. Natl. Acad. Sci. USA, 92, 2398-2402 (1995)).

HIV-1 protease Mutant 8 = HIV-1 protease Mutant 8 (Human immunodeficiency virus type 1, UniProt P04585); experiment: Ki against HIV-1 protease Mutant 8; type: biochemical; conditions: Mutant 8
HIV-1 isolates, Mutant 9 = experiment: In vitro drug sensitivity of HIV-1 laboratory isolates, Mutant 9; type: cell-based; conditions: Human immunodeficiency virus 1, read-out: IC50 Mutant 9
Experimental: as §1, §2

wild type HIV-1 protease = molecular target: T1, wild type HIV-1 protease (Human immunodeficiency virus type 1 group M subtype B, UniProt P04585); experiment: Ki against wild type (WT) HIV-1 protease; type: biochemical; conditions: WT
T1 construct: over 45 of the 99 amino acids of the HIV protease monomer

HIV-1 isolates, Mutant 8 = experiment: In vitro drug sensitivity of HIV-1 laboratory isolates, Mutant 8; type: cell-based; conditions: Human immunodeficiency virus 1, read-out: IC50 Mutant 8
Experimental: as §1, §2

HIV-1 protease Mutant 9 = HIV-1 protease Mutant 9 (Human immunodeficiency virus type 1, UniProt P04585); experiment: Ki against HIV-1 protease Mutant 9; type: biochemical; conditions: Mutant 9

SMILES	IC50 (HIV-1 isolates, WT) [nM]	Ki (HIV-1 protease Mutant 8) [nM]	IC50 (HIV-1 isolates, Mutant 9) [nM]	Ki (wild type HIV-1 protease) [nM]	IC50 (HIV-1 isolates, Mutant 8) [nM]	Ki (HIV-1 protease Mutant 9) [nM]
Cc1n[nH]c2ccc(S(=O)(=O)N(CC(C)C)CC(O)C(Cc3ccccc3)NC(=O)OC3COC4OCCC34)cc12 (stereo not drawn) [Compound 301, {1-Benzyl-2-hydroxy-3-[isobutyl-(3-methyl-1H-indazole-5-sulfonyl)-amino]-propyl}-carbamic acid hexahydro-furo[2,3-b]furan-3-yl ester]	8	< 0.3	80	< 0.1	70	0.23
CCCC(C)Nc1n[nH]c2ccc(S(=O)(=O)N(CC(C)C)CC(O)C(Cc3ccccc3)NC(=O)OC3COC4OCCC34)cc12 (stereo not drawn) [Compound 303]	10	< 0.3	150	< 0.1	18	0.73
CC(C)CN(CC(O)C(Cc1ccccc1)NC(=O)OC1COC2OCCC12)S(=O)(=O)c1ccc2[nH]nc(NC3CCCCC3)c2c1 (stereo not drawn) [Compound 304]	6.1	< 0.3	100	< 0.1	12	0.93
CCCNc1n[nH]c2ccc(S(=O)(=O)N(CC(C)C)CC(O)C(Cc3ccccc3)NC(=O)OC3COC4OCCC34)cc12 (stereo not drawn) [Compound 305]	16	< 0.3	180	< 0.1	30	0.66
CC(C)CN(CC(O)C(Cc1ccccc1)NC(=O)OC1COC2OCCC12)S(=O)(=O)c1ccc2[nH]nc(NCc3ccccc3)c2c1 (stereo not drawn) [Compound 306]	5.5	< 0.3	95	0.1	35	1.1
CCC(CC)Nc1n[nH]c2ccc(S(=O)(=O)N(CC(C)C)CC(O)C(Cc3ccccc3)NC(=O)OC3COC4OCCC34)cc12 (stereo not drawn) [Compound 307]	7.5	< 0.3	110	< 0.1	24	0.55
CCCCNc1n[nH]c2ccc(S(=O)(=O)N(CC(C)C)CC(O)C(Cc3ccccc3)NC(=O)OC3COC4OCCC34)cc12 (stereo not drawn) [Compound 308]	8	< 0.3	310	< 0.1	30	1.8
CC(C)CN(CC(O)C(Cc1ccccc1)NC(=O)OC1COC2OCCC12)S(=O)(=O)c1ccc2[nH]nc(NCC(C)(C)C)c2c1 (stereo not drawn) [Compound 309]	4	< 0.3	250	0.13	25	3.5
CCOC(=O)CNc1n[nH]c2ccc(S(=O)(=O)N(CC(C)C)CC(O)C(Cc3ccccc3)NC(=O)OC3COC4OCCC34)cc12 (stereo not drawn) [Compound 310]	50	< 0.3	60	< 0.1	70	0.19
